Several values for one entry are separate records, joined by “and”; a condition that tells them apart may be missing. Identical values can stand only once.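 A five-concentration, 48-hour dose response in 96-well plates underlies each endpoint, interpolated linearly between surrounding concentrations. GI50 is the concentration that inhibits growth by half.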 Activity calls are given as the source filed them. Cut-off read from the data, not from the text of the source: active = GI50 up to about 1.1 µM and inactive = higher.
How the values were obtained:
Test in all cases: DTP human tumour cell line panel, 48 h
[1] = test system: HT-29
[2] = test system: RPMI-8226
[3] = test system: T47D
[4] = test system: U-251
[5] = test system: SF-539
[6] = test system: SN12C
[7] = test system: NCI/ADR-RES
[8] = test system: HCT-116
[9] = test system: OVCAR-8
[10] = test system: NCI-H23
[11] = test system: K562
[12] = test system: MDA-MB-231
[13] = test system: SK-MEL-2
[14] = test system: UACC-257
[15] = test system: HL-60
[16] = test system: RXF 393
[17] = test system: SK-OV-3
[18] = test system: EKVX
[19] = test system: UO-31
[20] = test system: NCI-H226

Row | Structure (SMILES) | GI50 [1] | GI50 [2] | GI50 [3] | GI50 [4] | GI50 [5] | GI50 [6] | GI50 [7] | GI50 [8] | GI50 [9] | GI50 [10] | GI50 [11] | GI50 [12] | GI50 [13] | GI50 [14] | GI50 [15] | GI50 [16] | GI50 [17] | GI50 [18] | GI50 [19] | GI50 [20]
1 | O=C(O)C[S+]([O-])c1ccc2c3c(cccc13)C(=O)c1ccccc1-2 (stereo not given) | > 100 µM (inactive) | > 100 µM (inactive) | > 100 µM (inactive) | > 100 µM (inactive) | > 100 µM (inactive) | > 100 µM (inactive) | > 100 µM (inactive) | > 100 µM (inactive) | > 100 µM (inactive) | > 100 µM (inactive) | > 100 µM (inactive) | > 100 µM (inactive) | > 100 µM (inactive) | > 100 µM (inactive) | > 100 µM (inactive) | > 100 µM (inactive) | > 100 µM (inactive) | 55.1 µM (inactive) | > 100 µM (inactive) | > 100 µM (inactive)
2 | NC(=O)C(C(N)=O)=C(O)/C(O)=C/C(=O)c1ccccc1 | > 100 µM (inactive) | 12.6 µM (inactive) | > 100 µM (inactive) | > 100 µM (inactive) | > 100 µM (inactive) | > 100 µM (inactive) | > 100 µM (inactive) | > 100 µM (inactive) | > 100 µM (inactive) | > 100 µM (inactive) | 0.0652 µM (active) | > 100 µM (inactive) | > 100 µM (inactive) | > 100 µM (inactive) | 28.4 µM (inactive) | > 100 µM (inactive) | > 100 µM (inactive) | > 100 µM (inactive) | > 100 µM (inactive) | > 100 µM (inactive)
3 | CC(C)OC(=O)Nc1c([N+](=O)[O-])cc(C(F)(F)F)cc1[N+](=O)[O-] | > 100 µM (inactive) | > 100 µM (inactive) | > 100 µM (inactive) | 97.9 µM (inactive) | 23.9 µM (inactive) | > 91 µM (inactive) | > 100 µM (inactive) | > 100 µM (inactive) | 75.7 µM (inactive) | 69.5 µM (inactive) | > 46.5 µM (inactive) | 59.4 µM (inactive) | > 73.1 µM (inactive) | > 100 µM (inactive) | > 100 µM (inactive) | 20.1 µM (inactive) | 40.3 µM (inactive) | > 100 µM (inactive) | > 90.2 µM (inactive) | > 89.1 µM (inactive)
4 | Cc1cc2c(cc1C)N1C(Cl)=C3CCCCC3=C(C#N)C1N2 (stereo not given) | 2.55 µM (inactive) | 5.25 µM (inactive) | 12.2 µM (inactive) | 9.42 µM (inactive) | 22.4 µM (inactive) | 4.71 µM (inactive) | 6.31 µM (inactive) | 1.7 µM (inactive) | 11.5 µM (inactive) | 4.98 µM (inactive) | 3.6 µM (inactive) | 8.75 µM (inactive) | 14.6 µM (inactive) | 8.18 µM (inactive) | 3.05 µM (inactive) | 14 µM (inactive) | 18.6 µM (inactive) | 16.3 µM (inactive) | 6.55 µM (inactive) | 13.5 µM (inactive)
5 | C=CCNC(=S)NC=C(C(N)=O)C(N)=O | > 100 µM (inactive) | > 100 µM (inactive) | > 100 µM (inactive) | > 100 µM (inactive) | > 100 µM (inactive) | > 100 µM (inactive) | > 100 µM (inactive) | > 100 µM (inactive) | > 100 µM (inactive) | > 100 µM (inactive) | > 100 µM (inactive) | > 100 µM (inactive) | > 100 µM (inactive) | > 100 µM (inactive) | > 100 µM (inactive) | > 100 µM (inactive) | > 100 µM (inactive) | > 100 µM (inactive) | 87.9 µM (inactive) | > 100 µM (inactive)
6 | COc1cc2cc(C(=O)N3CC(CCl)c4ccc(NCCN)cc43)[nH]c2c(OC)c1OC (stereo not given) | 0.145 µM (active) | 0.153 µM (active) | 0.301 µM (active) | 0.175 µM (active) | 0.209 µM (active) | 0.237 µM (active) | 0.208 µM (active) | 0.217 µM (active) | 0.167 µM (active) | 0.0822 µM (active) | 0.11 µM (active) | 0.223 µM (active) | 0.179 µM (active) | 0.251 µM (active) | 0.0319 µM (active) | 0.105 µM (active) | 0.282 µM (active) | 0.528 µM (active) | 0.132 µM (active) | 0.296 µM (active)
7 | C=CC(C)(C)N[C@@H](C(=O)N1CCC[C@H]1c1nc(-c2nc(C(=O)OCC=C(C)C)c(C)o2)c(C)o1)C(C)C | 19.1 µM (inactive) | 18.7 µM (inactive) | 21.3 µM (inactive) | 21.1 µM (inactive) | 16.3 µM (inactive) | 18.5 µM (inactive) | 22.6 µM (inactive) | 17.8 µM (inactive) | 23.4 µM (inactive) | 21.8 µM (inactive) | 36.5 µM (inactive) | 21.3 µM (inactive) | 34 µM (inactive) | 20.5 µM (inactive) | 20.6 µM (inactive) | 30.7 µM (inactive) | 27.1 µM (inactive) | 32.3 µM (inactive) | 14.3 µM (inactive) | 17 µM (inactive)
8 | O=C1NCC(CSc2nc3cc(C4CCCc5c4[nH]c4ccccc54)ccc3o2)N1 (stereo not given) | 21.8 µM (inactive) | 22.4 µM (inactive) | 25.8 µM (inactive) | 51.5 µM (inactive) | 36.4 µM (inactive) | 49.7 µM (inactive) | 50.4 µM (inactive) | 33.4 µM (inactive) | 30.8 µM (inactive) | 32.5 µM (inactive) | 31.5 µM (inactive) | 23.1 µM (inactive) | 39.3 µM (inactive) | 45.1 µM (inactive) | 43.9 µM (inactive) | 26.5 µM (inactive) | > 100 µM (inactive) | 25.6 µM (inactive) | 53.1 µM (inactive) | 62.7 µM (inactive)
9 | CN1CCN([C@H]2C[C@H]3[C@@H]4CC=C5C[C@@H](O)CC[C@]5(C)[C@H]4CC[C@]3(C)C2=O)CC1 | 42.2 µM (inactive) | 91 µM (inactive) | > 100 µM (inactive) | > 100 µM (inactive) | 62.5 µM (inactive) | > 100 µM (inactive) | > 100 µM (inactive) | > 100 µM (inactive) | > 100 µM (inactive) | > 100 µM (inactive) | 34.3 µM (inactive) | > 100 µM (inactive) | > 100 µM (inactive) | > 100 µM (inactive) | 31.8 µM (inactive) | > 100 µM (inactive) | > 100 µM (inactive) | > 100 µM (inactive) | > 100 µM (inactive) | > 100 µM (inactive)
10 | O=S(=O)(O)c1ccc2c(/N=N/c3ccc(S(=O)(=O)O)c4ccccc34)c(O)c(S(=O)(=O)O)cc2c1 | > 100 µM (inactive) | > 100 µM (inactive) | > 100 µM (inactive) | > 100 µM (inactive) | > 100 µM (inactive) | > 100 µM (inactive) | > 100 µM (inactive) | > 100 µM (inactive) | > 100 µM (inactive) | > 100 µM (inactive) | > 100 µM (inactive) | > 100 µM (inactive) | > 100 µM (inactive) | > 100 µM (inactive) | > 100 µM (inactive) | > 100 µM (inactive) and 63.5 µM (inactive) | > 100 µM (inactive) | > 100 µM (inactive) | > 100 µM (inactive) | > 100 µM (inactive)

Source: ChEMBL document CHEMBL1201862, “PubChem BioAssay data set” (2004)
